{"source": "patent US10975083B2", "about": "“Blood-brain barrier-penetrant dopamine-β-hydroxylase inhibitors” (BIAL—PORTELA & Cᵃ, S.A., priority 2016, dated 2021)", "target": "T1, Dopamine beta hydroxylase (Homo sapiens, UniProt P09172)", "T1 construct": "Human plasma samples were obtained from healthy donors; tissue Instituto Portugues do Sangue Transplantacao, Porto; host or cells: human plasma from healthy donors", "T1 sequence (P09172 40-617 limits assumed)": "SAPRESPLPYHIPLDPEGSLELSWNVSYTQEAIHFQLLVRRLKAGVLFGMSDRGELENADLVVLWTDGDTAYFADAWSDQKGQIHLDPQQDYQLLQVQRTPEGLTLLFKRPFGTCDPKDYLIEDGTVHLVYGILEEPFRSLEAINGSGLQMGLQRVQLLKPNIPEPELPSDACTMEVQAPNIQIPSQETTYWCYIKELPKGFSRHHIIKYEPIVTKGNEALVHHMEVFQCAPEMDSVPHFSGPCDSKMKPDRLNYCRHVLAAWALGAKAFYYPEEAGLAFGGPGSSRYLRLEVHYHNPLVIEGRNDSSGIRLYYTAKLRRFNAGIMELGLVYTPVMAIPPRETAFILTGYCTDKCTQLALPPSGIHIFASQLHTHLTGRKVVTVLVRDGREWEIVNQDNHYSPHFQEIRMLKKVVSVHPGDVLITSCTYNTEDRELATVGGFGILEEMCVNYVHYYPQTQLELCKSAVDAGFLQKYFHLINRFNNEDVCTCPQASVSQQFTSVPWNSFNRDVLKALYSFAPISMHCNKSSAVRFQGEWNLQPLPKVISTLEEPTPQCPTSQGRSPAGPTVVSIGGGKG", "experiment": "DβH activity in human plasma", "assay_type": "biochemical", "conditions": "inhibitor 0.1 μM", "method": "Furthermore, the ability of a compound to inhibit DβH activity may be assessed in human plasma using the following assay. […]. Dopamine beta hydroxylase activity in human plasma was measured by the method previously developed (Nagatsu, T. and Udenfriend, S. Photometric assay of dopamine-β-hydroxylase activity in human blood. Clin. Chem. 18(9) 980-983, 1972) with minor modifications. Catalase, N-ethylmaleimide, tyramine, disodium fumarate, pargyline, sodium acetate, ascorbic acid, copper sulfate and octopamine were obtained from Sigma Chemical Co., St. Louis, Mo. 63178. Human plasma samples were obtained from healthy donors (Instituto Portugues do Sangue Transplantacao, Centro Sangue Transplantacao, Porto, Portugal). From date of collection, plasma was stored at −80° C. until use. Test compounds were initially prepared in dimethyl sulfoxide at a concentration of 10 mM and diluted in dimethyl sulfoxide to the required concentrations. […] Absorbance was measured at […] in a 96-well plate by use of a SpectraMAX plus 384 (Molecular Devices) with software SOFTmax® PRO Software 5.3 spectrophotometer. Absorbance was linear with octopamine concentration from 0.5 to 20 μg/ml. Dopamine beta hydroxylase activity is determined as nmol of octopamine formed/ml of plasma/hour and effect of compounds is presented as % control. […]", "note": "Marks after values point to notes of the source that are not given here."}
{"smiles": "Cc1[nH]c(=S)n2c1[C@@H]1C[C@]1(c1cc(Br)ccc1F)C2", "note": "[Example 122, (5aS,6aR)-5a-(5-bromo-2-fluorophenyl)-1-methyl-5,5a,6,6a-tetrahydrocyclopropa[3,4]pyrrolo[1,2-c]imidazole-3 (2H)-thione]", "values": [{"measurement": "DβH activity in % of control in human plasma assay (numbers in brackets)", "result": "(9.8)* % of Ctrl"}]}
